Earlier results on 1 molecule are cited in publication PMC10517971, “An inverse agonist of orphan receptor GPR61 acts by a G protein-competitive allosteric mechanism” (Nature Communications, 2023).

The conditions of data set [1]: cited from earlier work.
For the next data set, the system named is GPR61. More on the design: method as in PMID 14607265, PMID 31352450. Particulars: cited from earlier work.

As to `CCCCCCCCCOc1ccc2[nH]cc(CCN)c2c1` [Compound 5-NOT, 5-nonyloxy-tryptamine], the solubility entry in data set [1] was “low solubility”. In the data set on GPR61, the “potency as GPR61 inverse agonist” value is on record as “low potency” and the selectivity entry was “lack of selectivity”.
